Test results from patent publication US5424456A, “N-arylalkylderivatives of 2-aminomethyl-2,3-dihydro-1,4-benzodioxine and the process of preparation thereof” (Vyzkumny Ustav Pro Farmacii A Biochemii s.p., priority 1991, dated 1995).
pIC50: −log10 of the molar value.

Legend:
[1] = molecular target: T1, α-adrenergic (Rattus norvegicus, UniProt P23944); assay: α-adrenergic blocking activity, norepinephrine-induced contraction of helically cut rat aortic strip; settings: 37° C., cumulative doses, read-out: IC50 (concentration causing 50% relaxation)
T1 construct: helically cut rat aortic strip; from tissue; host or cells: rat aorta (helically cut strip)
T1 sequence (P23944 1-561): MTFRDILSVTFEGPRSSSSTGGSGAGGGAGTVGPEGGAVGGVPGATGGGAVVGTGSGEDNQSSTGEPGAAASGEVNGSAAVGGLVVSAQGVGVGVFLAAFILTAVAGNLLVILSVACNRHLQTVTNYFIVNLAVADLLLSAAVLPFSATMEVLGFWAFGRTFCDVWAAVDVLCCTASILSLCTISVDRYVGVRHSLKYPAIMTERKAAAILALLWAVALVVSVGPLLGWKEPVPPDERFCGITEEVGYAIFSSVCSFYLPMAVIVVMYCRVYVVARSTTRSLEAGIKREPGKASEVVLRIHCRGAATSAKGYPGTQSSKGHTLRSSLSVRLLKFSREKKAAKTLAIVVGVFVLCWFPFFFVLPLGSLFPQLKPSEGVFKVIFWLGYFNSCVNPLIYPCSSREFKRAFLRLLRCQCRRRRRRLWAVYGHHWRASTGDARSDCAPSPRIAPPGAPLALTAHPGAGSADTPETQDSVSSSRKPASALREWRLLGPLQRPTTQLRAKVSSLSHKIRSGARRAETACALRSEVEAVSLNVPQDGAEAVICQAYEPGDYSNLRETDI
Description: a) The α-adrenergic blocking activity of the compounds was tested using a helically cut rat aortic strip in a Krebs-Henselheit solution at 37° C., bubbled with a mixture of 95% O2 and 5% CO2. Norepinephrine induced contractions were detected isometrically. The compounds were added in cumulative doses and the relaxing activity was expressed in per cents of the maximum norepinephrine contraction.

[2] = test system: α-adrenergic; assay: α-adrenergic blocking activity, postdecapitation muscular contractions in rats; assay type: in vivo, rat; settings: i.v., 4.6 mg/kg, 30 minutes prior to decapitation
Description: b) The α-adrenergic blocking activity of compounds VUFB 17951 and VUFB 17959 was also shown in the test of influencing the postdecapitation muscular contractions in rats. The test compounds were administered intravenously in the dose of 4.6 mg/kg for VUFB 17951 and […] for VUFB 17959.

[3] = test system: blood pressure; assay: Hypotensive activity, pentobarbital anaesthesized rabbits; assay type: in vivo, rabbit
Excerpt: a) The blood pressure of pentobarbital anaesthesized rabbits was registered invasively in arteria femoralis. The average decrease in systolic (SBP) and diastolic (DBP) blood pressure expressed in per cents of the starting blood pressure level after intravenous and oral administration is shown in Tables 3 and 4.

[4] = test system: blood pressure; assay: Hypotensive activity, pentobarbital anaesthesized dogs; assay type: in vivo, dog
Excerpt: b) The blood pressure of pentobarbital anaesthesized dogs was registered invasively in arteria femoralis. The average decrease in systolic (SBP) arid diastolic (DBP) blood pressure expressed in per cents of the starting blood pressure level after intravenous and oral administration is shown in Tables 5 and 6.

[5] = test system: blood pressure; assay: Hypotensive activity, conscious monkeys; assay type: in vivo, Macaca mulatta
Description: c) The blood pressure of conscious monkeys (Macaca mulatta) was measured non-invasively on the arm. The average decrease in systolic (SBP) and diastolic (DBP) blood pressure after intravenous and oral administration was expressed in per cents of the starting blood pressure.

[6] = p.o., 5.0 mg/kg, value 1 of 5 (heads 30/60/120/180 min)
[7] = p.o., 5.0 mg/kg, value 2 of 5 (heads 30/60/120/180 min)
[8] = p.o., 5.0 mg/kg, value 3 of 5 (heads 30/60/120/180 min)
[9] = p.o., 5.0 mg/kg, value 4 of 5 (heads 30/60/120/180 min)
[10] = p.o., 5.0 mg/kg, value 5 of 5 (heads 30/60/120/180 min)
[11] = p.o., 10.0 mg/kg, value 1 of 5 (heads 30/60/120/180 min)
[12] = p.o., 10.0 mg/kg, value 2 of 5 (heads 30/60/120/180 min)
[13] = p.o., 10.0 mg/kg, value 3 of 5 (heads 30/60/120/180 min)
[14] = p.o., 10.0 mg/kg, value 4 of 5 (heads 30/60/120/180 min)
[15] = p.o., 10.0 mg/kg, value 5 of 5 (heads 30/60/120/180 min)
[16] = i.v., 0.46 mg/kg, value 1 of 5 (heads 5/30/60/180 min; probably 1 min)
[17] = i.v., 0.46 mg/kg, value 2 of 5 (heads 5/30/60/180 min; probably 5 min)
[18] = i.v., 0.46 mg/kg, value 3 of 5 (heads 5/30/60/180 min; probably 30 min)
[19] = i.v., 0.46 mg/kg, value 4 of 5 (heads 5/30/60/180 min; probably 60 min)
[20] = i.v., 0.46 mg/kg, value 5 of 5 (heads 5/30/60/180 min; probably 180 min)
[21] = i.v., 4.6 mg/kg, value 1 of 5 (heads 5/30/60/180 min; probably 1 min)
[22] = i.v., 4.6 mg/kg, value 2 of 5 (heads 5/30/60/180 min; probably 5 min)
[23] = i.v., 4.6 mg/kg, value 3 of 5 (heads 5/30/60/180 min; probably 30 min)
[24] = i.v., 4.6 mg/kg, value 4 of 5 (heads 5/30/60/180 min; probably 60 min)
[25] = i.v., 4.6 mg/kg, value 5 of 5 (heads 5/30/60/180 min; probably 180 min)

## COc1ccc(C(C#N)(CCCNCC2COc3ccccc3O2)C(C)C)cc1OC (racemic) [VUFB 17951, 5-(2,3-Dihydro-1,4-benzodioxin-2-ylmethylamino)-2-(3,4-dimethoxyphenyl)-2-isopropyl valeronitrile]
[1]
  pIC50: 5.22
[2]
  decrease in number of postdecapitation contractions: highly significant decrease in number of postdecapitation contractions
[3]; i.v., 0.2 mg/kg, 1 min
  decrease in diastolic blood pressure (DBP): -36 per cents
  decrease in systolic blood pressure (SBP): -28 per cents
[3]; i.v., 0.2 mg/kg, 5 min
  decrease in diastolic blood pressure (DBP): -23 per cents
  decrease in systolic blood pressure (SBP): -24 per cents
[3]; i.v., 0.2 mg/kg, 30 min
  decrease in diastolic blood pressure (DBP): -24 per cents
  decrease in systolic blood pressure (SBP): -25 per cents
[3]; i.v., 0.2 mg/kg, 60 min
  decrease in diastolic blood pressure (DBP): -16 per cents
  decrease in systolic blood pressure (SBP): -18 per cents
[3]; i.v., 0.2 mg/kg, 180 min
  decrease in diastolic blood pressure (DBP): -17 per cents
  decrease in systolic blood pressure (SBP): -13 per cents
[3]; i.v., 1.0 mg/kg, 1 min
  decrease in diastolic blood pressure (DBP): -56 per cents
  decrease in systolic blood pressure (SBP): -47 per cents
[3]; i.v., 1.0 mg/kg, 5 min
  decrease in diastolic blood pressure (DBP): -36 per cents
  decrease in systolic blood pressure (SBP): -39 per cents
[3]; i.v., 1.0 mg/kg, 30 min
  decrease in diastolic blood pressure (DBP): -30 per cents
  decrease in systolic blood pressure (SBP): -35 per cents
[3]; i.v., 1.0 mg/kg, 60 min
  decrease in diastolic blood pressure (DBP): -33 per cents
  decrease in systolic blood pressure (SBP): -35 per cents
[3]; i.v., 1.0 mg/kg, 180 min
  decrease in diastolic blood pressure (DBP): -24 per cents
  decrease in systolic blood pressure (SBP): -17 per cents
[3]; [6]
  decrease in diastolic blood pressure (DBP): -6 per cents
  decrease in systolic blood pressure (SBP): -6 per cents
[3]; [7]
  decrease in diastolic blood pressure (DBP): -12 per cents
  decrease in systolic blood pressure (SBP): -14 per cents
[3]; [8]
  decrease in diastolic blood pressure (DBP): -18 per cents
  decrease in systolic blood pressure (SBP): -17 per cents
[3]; [9]
  decrease in diastolic blood pressure (DBP): -18 per cents
  decrease in systolic blood pressure (SBP): -13 per cents
[3]; [10]
  decrease in diastolic blood pressure (DBP): -18 per cents
  decrease in systolic blood pressure (SBP): -15 per cents
[3]; [11]
  decrease in diastolic blood pressure (DBP): -6 per cents
  decrease in systolic blood pressure (SBP): -5 per cents
[3]; [12]
  decrease in diastolic blood pressure (DBP): -11 per cents
  decrease in systolic blood pressure (SBP): -9 per cents
[3]; [13]
  decrease in diastolic blood pressure (DBP): -18 per cents
  decrease in systolic blood pressure (SBP): -12 per cents
[3]; [14]
  decrease in diastolic blood pressure (DBP): -20 per cents
  decrease in systolic blood pressure (SBP): -13 per cents
[3]; [15]
  decrease in diastolic blood pressure (DBP): -17 per cents
  decrease in systolic blood pressure (SBP): -12 per cents
[4]; [16]
  decrease in diastolic blood pressure (DBP): -52 per cents
  decrease in systolic blood pressure (SBP): -46 per cents
[4]; [17]
  decrease in diastolic blood pressure (DBP): -46 per cents
  decrease in systolic blood pressure (SBP): -47 per cents
[4]; [18]
  decrease in diastolic blood pressure (DBP): -40 per cents
  decrease in systolic blood pressure (SBP): -41 per cents
[4]; [19]
  decrease in diastolic blood pressure (DBP): -36 per cents
  decrease in systolic blood pressure (SBP): -41 per cents
[4]; [20]
  decrease in diastolic blood pressure (DBP): -28 per cents
  decrease in systolic blood pressure (SBP): -26 per cents
[4]; [21]
  decrease in diastolic blood pressure (DBP): -53 per cents
  decrease in systolic blood pressure (SBP): -46 per cents
[4]; [22]
  decrease in diastolic blood pressure (DBP): -49 per cents
  decrease in systolic blood pressure (SBP): -48 per cents
[4]; [23]
  decrease in diastolic blood pressure (DBP): -47 per cents
  decrease in systolic blood pressure (SBP): -42 per cents
[4]; [24]
  decrease in diastolic blood pressure (DBP): -42 per cents
  decrease in systolic blood pressure (SBP): -40 per cents
[4]; [25]
  decrease in diastolic blood pressure (DBP): -34 per cents
  decrease in systolic blood pressure (SBP): -31 per cents
[4]; p.o., 4.6 mg/kg, 15 min
  decrease in diastolic blood pressure (DBP): -9 per cents
  decrease in systolic blood pressure (SBP): -9 per cents
[4]; p.o., 4.6 mg/kg, 30 min
  decrease in diastolic blood pressure (DBP): -11 per cents
  decrease in systolic blood pressure (SBP): -11 per cents
[4]; p.o., 4.6 mg/kg, 60 min
  decrease in diastolic blood pressure (DBP): -13 per cents
  decrease in systolic blood pressure (SBP): -14 per cents
[4]; p.o., 4.6 mg/kg, 120 min
  decrease in diastolic blood pressure (DBP): -14 per cents
  decrease in systolic blood pressure (SBP): -19 per cents
[4]; p.o., 4.6 mg/kg, 300 min
  decrease in diastolic blood pressure (DBP): -19 per cents
  decrease in systolic blood pressure (SBP): -24 per cents
[5]; i.v., 0.25 mg/kg, 1 min
  decrease in diastolic blood pressure (DBP): -49 per cents
  decrease in systolic blood pressure (SBP): -37 per cents
[5]; i.v., 0.25 mg/kg, 5 min
  decrease in diastolic blood pressure (DBP): -50 per cents
  decrease in systolic blood pressure (SBP): -45 per cents
[5]; i.v., 0.25 mg/kg, 30 min
  decrease in diastolic blood pressure (DBP): -31 per cents
  decrease in systolic blood pressure (SBP): -28 per cents
[5]; i.v., 0.25 mg/kg, 60 min
  decrease in diastolic blood pressure (DBP): -17 per cents
  decrease in systolic blood pressure (SBP): -11 per cents
[5]; i.v., 0.25 mg/kg, 180 min
  decrease in diastolic blood pressure (DBP): -18 per cents
  decrease in systolic blood pressure (SBP): -8 per cents
[5]; i.v., 1.0 mg/kg, 1 min
  decrease in diastolic blood pressure (DBP): -58 per cents
  decrease in systolic blood pressure (SBP): -50 per cents
[5]; i.v., 1.0 mg/kg, 5 min
  decrease in diastolic blood pressure (DBP): -60 per cents
  decrease in systolic blood pressure (SBP): -53 per cents
[5]; i.v., 1.0 mg/kg, 30 min
  decrease in diastolic blood pressure (DBP): -46 per cents
  decrease in systolic blood pressure (SBP): -39 per cents
[5]; i.v., 1.0 mg/kg, 60 min
  decrease in diastolic blood pressure (DBP): -30 per cents
  decrease in systolic blood pressure (SBP): -29 per cents
[5]; i.v., 1.0 mg/kg, 180 min
  decrease in diastolic blood pressure (DBP): -23 per cents
  decrease in systolic blood pressure (SBP): -19 per cents
[5]; p.o., 10.0 mg/kg, 5-6 hours
  decrease in diastolic blood pressure (DBP): -29 per cents
  decrease in systolic blood pressure (SBP): -23 per cents
[5]; p.o., 10.0 mg/kg, 0.5 hours
  decrease in diastolic blood pressure (DBP): -30 per cents
  decrease in systolic blood pressure (SBP): -26 per cents
[5]; p.o., 10.0 mg/kg, 1 hours
  decrease in diastolic blood pressure (DBP): -27 per cents
  decrease in systolic blood pressure (SBP): -24 per cents
[5]; p.o., 10.0 mg/kg, 3 hours
  decrease in diastolic blood pressure (DBP): -26 per cents
  decrease in systolic blood pressure (SBP): -21 per cents
[5]; p.o., 10.0 mg/kg, 24 hours
  decrease in diastolic blood pressure (DBP): -11 per cents
  decrease in systolic blood pressure (SBP): -9 per cents
